Earlier results as cited in PMC8476002, “Bergamottin a CYP3A inhibitor found in grapefruit juice inhibits prostate cancer cell growth by downregulating androgen receptor signaling and promoting G0/G1 cell cycle block and apoptosis” (PLoS ONE, 2021).

Assays:
cell growth = conditions: earlier work of the authors; cited from earlier work
cytoplasmic AR = test system: cytoplasmic AR; parameters: method as in PMID 32316460; conditions: cited from earlier work

SMILES	cell growth (cell growth)	cytoplasmic AR (cytoplasmic AR)
CC[C@]1(C)C[C@@H](OC(=O)CSc2nnc(N)[nH]2)[C@]2(C)[C@H](C)CC[C@]3(CCC(=O)[C@H]32)[C@@H](C)[C@@H]1O [azamulin]	cell growth is inhibited	
CC(C)c1nc(CN(C)C(=O)N[C@H](C(=O)N[C@@H](Cc2ccccc2)C[C@H](O)[C@H](Cc2ccccc2)NC(=O)OCc2cncs2)C(C)C)cs1 [ritonavir]		increase in cytoplasmic AR
